The results in this text go back to patent publication US4436662A, “Pyrrolo[3,4-d][2]benzazepinones” (Hoffmann-La Roche Inc., priority 1983, dated 1984).

Read-outs that look alike come from different tables or passages of the source.

Data set [1] concerns convulsions (metrazol iv). In words: Intravenous Antimetrazol Test. Conditions: Mus musculus, po, 1 h. Format: in vivo, Male CF-1 mice. How it is done:
Intravenous Antimetrazol Test
Brief Description: Male CF-1 mice, 45-54 days old, housed in facilities for one week and food-deprived for about 24 hours, are used in this test. The test compound, dispersed in 5% acacia, is administered orally to three mice at 1/10 the dose at which lethality occurred in the TSP testing. One hour later, metrazol is administered intravenously at 70 mg/kg (convulsant dose 100 mg/kg) and animals are observed 30 seconds for protection against convulsions. If the compound is active orally, 3 animals are used per dose level.
Measurements Made: The number of animals protected from convulsions.
Calculations: If the drug is active and three mice are used per dose level, the approximate ED50 is calculated by the method of Miller and Tainter (Proc. Soc. Exp. Biol. Med. 57:261, 1944). If six or more mice are used per dose level, the ED50 values and 95% fiducial limits are calculated using a computer program based on the method of D. J. Finney ("Probit Analysis", Cambridge University Press, Cambridge, England, 1971).

The nature of data set [2]: LD50 (po) acute lethality. Also noted: species or system mice. Conditions: mouse, in vivo.
The target in data set [3] is 3H-Diazepam binding, rat brain cortical fragments. The experiment in a line: 3H-Diazepam Binding Assay. Conditions: read-out: IC50 (nM), concentration required to inhibit binding by 50%, Tris buffer, assayed in triplicate. How it is done:
Brief-Description: Rat brain cortical fragments are prepared and the binding procedures performed as described by Mohler and Okada (Life Sciences, 20, 2101, 1977) except that Tris buffer is substituted for Krebs buffer. Drugs are assayed in triplicate.
Measurements Made: Radioactivity is measured by liquid scintillation counting.

[4] abbreviates: standard drugs, read-out: ED50 (95% Fiducial Limits).
The mark [5] stands for this setting: mice, printed in binding results table.
Where [6] appears, read: printed in antimetrazol results table.
[7] abbreviates: 1 hour before metrazol 70 mg/kg iv, 50% of animals protected from convulsive seizures, test compounds, read-out: ED50.

By ED50 is commonly meant the dose at which the effect has come halfway, by size or by number of responders. In the case of `CN1C(=O)CN=C(c2ccccc2)c2cc(Cl)ccc21` [Diazepam], the ED50 in data set [1] (setting [4]) came out at 1 mg/kg. A word on the LD50: it is the dose expected to kill half of the subjects tested. Lower therefore signals greater toxicity. Turning to `CN1CC2=C(CN=C(c3ccccc3Cl)c3cc(Cl)ccc32)C1=O` [8-chloro-6-(2-chlorophenyl)-1,4-dihydro-2-methylpyrrolo[3,4-d][2]benzazepin-3(2H)-one], the LD50 in data set [2] (setting [5]) and in data set [2] (setting [6]) was 800 mg/kg each time. For the same molecule, the 50% effective dose (ED50) in data set [1] (setting [7]) was found to be 0.08 mg/kg.

For `CNC1=Nc2ccc(Cl)cc2C(c2ccccc2)=[N+]([O-])C1` [Chlordiazepoxide], the ED50 in data set [1] (setting [4]) was found to be 3.9 mg/kg. As to `CC1NC(=O)C2=C1c1ccc(Cl)cc1C(c1ccccc1Cl)=NC2` (centres unmarked) [8-Chloro-6-(2-chlorophenyl)-1,4-dihydro-1-methylpyrrolo[3,4-d][2]benzazepin-3(2H)-one], the LD50 in data set [2] (setting [5]) and in data set [2] (setting [6]) was above 1000 mg/kg throughout. The ED50 in data set [1] (setting [7]) is 0.08 mg/kg. Also, the IC50 in data set [3] was 1 nM. As for `CCN(CC)CCN1C(=O)CN=C(c2ccccc2F)c2cc(Cl)ccc21` [Flurazepam, reference compound], the IC50 in data set [3] was 15.6 nM. Take `CCC1(c2ccccc2)C(=O)NC(=O)NC1=O` [Sodium Phenobarbital]: in data set [1] (setting [4]), the ED50 was determined as 19 mg/kg.
